The text below walks through data of PMC13058460, “PET-MRI biomarkers reveal efficacy of a novel NLRP3 inhibitor in Parkinson’s disease models” (Brain, 2025).

Some results are limits rather than exact numbers.

Data set [1] can be described thus: Single-dose pharmacokinetics (plasma and brain) in C57BL/6J mice. It counts as in vivo, mouse.
Another data set has as its target T1, CYP1A2 (Homo sapiens, UniProt P05177).
T1 sequence (P05177 1-516): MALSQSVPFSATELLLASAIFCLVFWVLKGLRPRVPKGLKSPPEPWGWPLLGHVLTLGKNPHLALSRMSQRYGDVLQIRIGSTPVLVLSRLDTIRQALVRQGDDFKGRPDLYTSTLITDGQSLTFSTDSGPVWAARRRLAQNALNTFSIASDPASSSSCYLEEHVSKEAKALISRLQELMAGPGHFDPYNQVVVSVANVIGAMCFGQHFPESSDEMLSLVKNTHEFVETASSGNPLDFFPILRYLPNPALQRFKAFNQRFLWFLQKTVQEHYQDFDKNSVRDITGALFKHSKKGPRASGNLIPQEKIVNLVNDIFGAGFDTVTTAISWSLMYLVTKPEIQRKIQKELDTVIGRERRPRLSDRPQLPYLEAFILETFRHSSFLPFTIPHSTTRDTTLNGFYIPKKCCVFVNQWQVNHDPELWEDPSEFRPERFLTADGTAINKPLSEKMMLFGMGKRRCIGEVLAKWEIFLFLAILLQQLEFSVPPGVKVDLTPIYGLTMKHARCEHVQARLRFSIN
The data set can be described thus: CYP1A2 inhibition.

A further data set deals with CYP2C9 (Homo sapiens, UniProt P11712). The data set can be described thus: CYP2C9 inhibition.
Another data set has as its target CYP2D6 (Homo sapiens, UniProt P10635). Briefly: CYP2D6 inhibition.
Another data set has as its target CYP3A4 (Homo sapiens, UniProt P08684). The data set can be described thus: CYP3A4 inhibition.
Data set [2] concerns the target hERG (human ether-a-go-go K+ ion channel) (Homo sapiens, UniProt Q12809). Briefly: hERG QPatch assay. For orientation: The hERG channel carries a current that helps repolarise heart muscle cells.
Method: (§1) LM – Liver microsome (half-life in minutes)
PPB – Plasma Protein Binding
(§2) PS – Plasma Stability (% remaining at 2 hours)
The next data set can be described thus: Human plasma stability. The settings on record: % remaining at 2 hours.
The next data set is described as follows: Mouse plasma stability. As to conditions: % remaining at 2 hours.
A short description of data set [3]: Human plasma protein binding.
Method: as §1
PPB – Plasma Protein Binding
as §2
Data set [4] in a line: Mouse plasma protein binding. The settings on record: Mouse % PPB, plasma protein binding.
Method: as §1
PPB – Plasma Protein Binding
as §2
Data set [5] in a line: Human liver microsome stability. The settings on record: liver microsomes.
Method: as §1
PPB – Plasma Protein Binding
as §2
Data set [6] in a line: Mouse liver microsome stability. As to conditions: liver microsomes.
Method: as §1
PPB – Plasma Protein Binding
as §2

CYP2D6, sequence (P10635 whole entry): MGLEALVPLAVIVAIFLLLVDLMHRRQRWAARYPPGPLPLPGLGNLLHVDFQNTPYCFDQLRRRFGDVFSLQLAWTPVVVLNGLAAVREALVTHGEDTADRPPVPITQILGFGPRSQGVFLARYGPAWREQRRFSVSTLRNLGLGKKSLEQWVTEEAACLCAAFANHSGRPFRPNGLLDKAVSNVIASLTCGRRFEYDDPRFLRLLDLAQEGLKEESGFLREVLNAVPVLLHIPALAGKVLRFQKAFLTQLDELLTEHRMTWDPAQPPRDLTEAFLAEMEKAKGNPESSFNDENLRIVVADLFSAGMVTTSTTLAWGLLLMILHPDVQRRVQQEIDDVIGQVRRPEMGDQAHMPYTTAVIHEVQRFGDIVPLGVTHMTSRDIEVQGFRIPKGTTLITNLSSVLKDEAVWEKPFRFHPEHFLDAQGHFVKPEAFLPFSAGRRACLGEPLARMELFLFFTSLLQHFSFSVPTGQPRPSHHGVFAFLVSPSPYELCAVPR
CYP2C9, sequence (P11712 whole entry): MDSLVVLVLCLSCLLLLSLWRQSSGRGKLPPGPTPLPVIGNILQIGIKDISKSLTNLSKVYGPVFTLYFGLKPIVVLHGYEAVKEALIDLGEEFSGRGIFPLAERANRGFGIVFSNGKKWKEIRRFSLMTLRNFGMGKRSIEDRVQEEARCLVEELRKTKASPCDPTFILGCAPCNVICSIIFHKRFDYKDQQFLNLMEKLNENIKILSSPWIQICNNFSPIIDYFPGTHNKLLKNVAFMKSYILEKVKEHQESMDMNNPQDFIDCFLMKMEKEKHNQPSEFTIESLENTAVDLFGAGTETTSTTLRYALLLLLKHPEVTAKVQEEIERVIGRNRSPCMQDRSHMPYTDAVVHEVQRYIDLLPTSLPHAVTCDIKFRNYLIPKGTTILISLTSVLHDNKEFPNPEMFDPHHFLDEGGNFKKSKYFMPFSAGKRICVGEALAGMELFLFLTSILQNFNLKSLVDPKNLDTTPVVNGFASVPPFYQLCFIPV
CYP3A4, sequence (P08684 whole entry): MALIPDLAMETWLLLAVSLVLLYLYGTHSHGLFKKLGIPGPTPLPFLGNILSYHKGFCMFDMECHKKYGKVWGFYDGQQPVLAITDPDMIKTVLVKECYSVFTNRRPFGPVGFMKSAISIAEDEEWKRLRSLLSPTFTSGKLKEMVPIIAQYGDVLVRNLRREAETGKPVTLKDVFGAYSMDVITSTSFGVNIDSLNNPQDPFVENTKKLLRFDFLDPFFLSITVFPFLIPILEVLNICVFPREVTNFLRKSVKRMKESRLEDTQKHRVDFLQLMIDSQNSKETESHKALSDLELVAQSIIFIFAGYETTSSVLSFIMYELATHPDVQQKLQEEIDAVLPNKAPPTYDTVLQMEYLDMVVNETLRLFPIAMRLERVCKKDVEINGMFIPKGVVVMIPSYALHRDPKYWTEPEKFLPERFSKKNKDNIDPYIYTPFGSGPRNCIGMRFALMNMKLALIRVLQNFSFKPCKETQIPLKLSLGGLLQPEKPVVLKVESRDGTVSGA
hERG (human ether-a-go-go K+ ion channel), sequence (Q12809 whole entry): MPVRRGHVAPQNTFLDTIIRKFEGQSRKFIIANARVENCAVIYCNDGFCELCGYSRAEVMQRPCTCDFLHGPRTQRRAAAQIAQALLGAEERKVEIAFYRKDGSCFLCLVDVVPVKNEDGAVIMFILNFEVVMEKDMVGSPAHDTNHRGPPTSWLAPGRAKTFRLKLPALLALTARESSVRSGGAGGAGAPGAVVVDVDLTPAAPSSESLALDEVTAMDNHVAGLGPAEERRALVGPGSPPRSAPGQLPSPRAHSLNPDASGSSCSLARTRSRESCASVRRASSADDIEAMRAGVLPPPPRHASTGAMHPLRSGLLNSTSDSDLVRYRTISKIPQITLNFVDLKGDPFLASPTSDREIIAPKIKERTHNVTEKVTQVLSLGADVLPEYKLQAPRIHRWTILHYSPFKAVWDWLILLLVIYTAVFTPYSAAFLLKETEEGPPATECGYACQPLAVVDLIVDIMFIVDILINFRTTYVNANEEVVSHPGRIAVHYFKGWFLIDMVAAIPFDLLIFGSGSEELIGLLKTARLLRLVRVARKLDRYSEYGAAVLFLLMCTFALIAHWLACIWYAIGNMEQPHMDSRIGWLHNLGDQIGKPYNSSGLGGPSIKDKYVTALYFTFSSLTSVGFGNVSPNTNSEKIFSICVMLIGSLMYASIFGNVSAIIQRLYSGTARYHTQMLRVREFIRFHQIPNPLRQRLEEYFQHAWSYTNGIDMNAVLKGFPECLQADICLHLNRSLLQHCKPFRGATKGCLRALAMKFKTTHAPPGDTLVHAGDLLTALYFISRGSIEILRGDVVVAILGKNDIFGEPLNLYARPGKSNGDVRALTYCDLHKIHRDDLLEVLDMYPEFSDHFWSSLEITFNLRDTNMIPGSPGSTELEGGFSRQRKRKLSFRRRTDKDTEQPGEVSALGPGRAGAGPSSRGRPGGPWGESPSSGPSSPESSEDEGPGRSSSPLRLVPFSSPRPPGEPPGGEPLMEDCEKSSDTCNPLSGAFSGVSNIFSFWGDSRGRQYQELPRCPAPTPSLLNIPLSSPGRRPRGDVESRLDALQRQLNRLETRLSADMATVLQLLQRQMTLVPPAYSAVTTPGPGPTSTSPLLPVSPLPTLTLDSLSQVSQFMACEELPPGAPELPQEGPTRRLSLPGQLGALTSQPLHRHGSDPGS
Method for CYP2C9: as §1
PPB – Plasma Protein Binding
as §2
Method for CYP2D6: as §1
PPB – Plasma Protein Binding
as §2
Method for CYP3A4: as §1
PPB – Plasma Protein Binding
as §2
Method for Human plasma stability: as §1
PPB – Plasma Protein Binding
as §2
Method for Mouse plasma stability: as §1
PPB – Plasma Protein Binding
as §2

For the molecule `CC(C)(O)c1coc(S(=O)(=O)NC(=O)Nc2c3c(cc4c2CCC4)CCC3)c1` [MCC950, reference compound], in [1] (fasted male C57BL/6J mice, i.v. 4 mg/kg or oral 20 mg/kg), the “Tolerability in single-dose pharmacokinetic studies” value is on record as “well tolerated”. In addition, the bioavailability (in general, dose-corrected exposure relative to a reference, in per cent) in data set [1] (male, C57BL/6J, mouse, plasma, oral, mice, p.o. 20 mg/kg vs i.v. 4 mg/kg) came to 71%. Moreover, the Oral half-life in [1] (mice, p.o. 20 mg/kg, plasma) was 2.4 h. Further, the IC50 (usually the concentration needed to halve the response being measured) on CYP1A2 was 20 µM; on CYP2C9, 43 µM; at CYP2D6 it was more than 50 µM; against CYP3A4, more than 50 µM. The inhibition (in general, the percentage by which the read-out fell short of the control) at 30 µM in [2] was found to be 21 ± 4.3%. Besides, the “Human % PS” value in the data set “Human plasma stability” turned out to be 96%. Moreover, the “Mouse % PS” value in the data set “Mouse plasma stability” was 99%. Further, the fraction unbound (in general, free concentration divided by total concentration) in data set [3] was 0.005; in data set [4], 0.006. Also, the half-life in data set [5] and in data set [6] was more than 2.42 h in each case.
